Reference: US12692254B2, “Benzimidazole inhibitors of PAD enzymes” (BRISTOL-MYERS SQUIBB COMPANY, priority 2018, dated 2026)
pIC50: −log10 of the molar value.

Target: human PAD4 (hPAD4) (Homo sapiens, UniProt Q9UM07)
Assay: RFMS human PAD4 functional assay (rapid-fire mass spectrum)
Type: biochemical
Conditions: 5 nM hPAD4 enzyme, 250 μM BAEE, 50 μM Calcium; 30 min preincubation, 90 min reaction at 37° C.
Method in brief: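 PAD4 (10 nM) preincubated 30 min with compound (top final 50 μM), then BAEE substrate added in pH 7.5 HEPES buffer with DTT, 50 μM calcium, TPEN; 90 min at 37° C. After TCA quench, citrulline derivatized with phenyl glyoxal (4 mM final, 30 min, 37° C) and quantified by RapidFire MS against internal standard.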

Sequence of human PAD4 (hPAD4) (Q9UM07 whole entry): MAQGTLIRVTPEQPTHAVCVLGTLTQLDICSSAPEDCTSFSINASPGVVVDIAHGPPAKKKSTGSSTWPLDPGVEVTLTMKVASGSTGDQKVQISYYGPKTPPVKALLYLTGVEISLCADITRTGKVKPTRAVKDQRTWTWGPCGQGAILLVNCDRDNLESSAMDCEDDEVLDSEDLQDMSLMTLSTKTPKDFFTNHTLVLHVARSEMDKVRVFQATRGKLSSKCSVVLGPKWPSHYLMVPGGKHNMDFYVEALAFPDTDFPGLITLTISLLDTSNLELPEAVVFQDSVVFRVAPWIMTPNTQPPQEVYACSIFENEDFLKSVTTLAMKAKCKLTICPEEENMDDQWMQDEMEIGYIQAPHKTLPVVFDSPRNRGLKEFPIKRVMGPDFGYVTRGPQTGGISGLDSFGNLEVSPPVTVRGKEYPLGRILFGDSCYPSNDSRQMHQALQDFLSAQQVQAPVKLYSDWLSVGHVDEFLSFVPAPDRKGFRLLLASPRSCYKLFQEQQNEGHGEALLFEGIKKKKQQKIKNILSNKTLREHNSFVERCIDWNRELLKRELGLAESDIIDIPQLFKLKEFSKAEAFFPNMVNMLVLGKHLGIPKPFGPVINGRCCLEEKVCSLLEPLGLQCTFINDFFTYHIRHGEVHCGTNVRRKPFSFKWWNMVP

SMILES | pIC50
COc1cc(C(=O)N2C[C@H](N)C[C@@H](F)C2)cc2nc(-c3cc4cccnc4n3CC3CC3)n(CC3(F)CN(C(=O)c4ccccc4)C3)c12 [Example 468, (3R,5R)-1-{1-[(1-benzoyl-3-fluoroazetidin-3-yl)methyl]-2-[1-(cyclopropylmethyl)-1H-pyrrolo[2,3-b]pyridin-2-yl]-7-methoxy-1H-1,3-benzodiazole-5-carbonyl}-5-fluoropiperidin-3-amine] | 7.00
COc1cc(C(=O)N2C[C@H](N)C[C@@H](F)C2)cc2nc(-c3cc4cccnc4n3CC3CC3)n(CC3(C)CN(C(=O)c4ccccc4)C3)c12 [Example 469, (3R,5R)-1-{1-[(1-benzoyl-3-methylazetidin-3-yl)methyl]-2-[1-(cyclopropylmethyl)-1H-pyrrolo[2,3-b]pyridin-2-yl]-7-methoxy-1H-1,3-benzodiazole-5-carbonyl}-5-fluoropiperidin-3-amine] | 6.89
COc1cc(C(=O)N2C[C@H](N)CC[C@@H]2C)cc2nc(-c3cc4cccnc4n3CC3CC3)n(CC3CN(C(=O)c4ccccc4)C3)c12 [Example 470, (3R,6S)-1-{1-[(1-benozylazetidin-3-yl)methyl]-2-[1-(cyclopropylmethyl)-1H-pyrrolo[2,3-b]pyridin-2-yl]-7-methoxy-1H-1,3-benzodiazole-5-carbonyl}-6-methylpiperidin-3-amine] | 6.75
Cc1cc(C(=O)N2CC3CCC2[C@@H]3N)cc2nc(-c3cc4cccnc4n3CC3CC3)n(CC3CN(C(=O)c4ccc(C#N)cc4)C3)c12 (stereo partly drawn) [Example 471, 4-[3-({5-[(7R)-7-amino-2-azabicyclo[2.2.1]heptane-2-carbonyl]-2-[1-(cyclopropylmethyl)-1H-pyrrolo[2,3-b]pyridin-2-yl]-7-methyl-1H-1,3-benzodiazol-1-yl}methyl)azetidine-1-carbonyl]benzonitrile] | 6.64
COc1cc(C(=O)N2CC3CCC2[C@@H]3N)cc2nc(-c3cc4ccccc4n3CC3CC3)n(CC3CN(C(=O)Nc4ccccc4)C3)c12 (stereo partly drawn) [Example 472, 3-({5-[(7R)-7-amino-2-azabicyclo[2.2.1]heptane-2-carbonyl]-2-[1-(cyclopropylmethyl)-1H-indol-2-yl]-7-methoxy-1H-1,3-benzodiazol-1-yl}methyl)-N-phenylazetidine-1-carboxamide] | 7.12
COc1cc(C(=O)N2CC3CCC2[C@@H]3N)cc2nc(-c3cc4ccccc4n3CC3CC3)n(CC3CC(=O)N(C)C3)c12 (stereo partly drawn) [Example 473, 4-({5-[(7R)-7-amino-2-azabicyclo[2.2.1]heptane-2-carbonyl]-2-[1-(cyclopropylmethyl)-1H-indol-2-yl]-7-methoxy-1H-1,3-benzodiazol-1-yl}methyl)-1-methylpyrrolidin-2-one] | 6.89
COc1cc(C(=O)N2CC3CCC2[C@@H]3N)cc2nc(-c3cc4ccccc4n3CC3CC3)n(CC3CC(=O)N(C)C3)c12 (stereo partly drawn) [Example 474, 4-({5-[(7R)-7-amino-2-azabicyclo[2.2.1]heptane-2-carbonyl]-2-[1-(cyclopropylmethyl)-1H-indol-2-yl]-7-methoxy-1H-1,3-benzodiazol-1-yl}methyl)-1-methylpyrrolidin-2-one] | 6.83
COc1cc(C(=O)N2CC3CCC2[C@@H]3N)cc2nc(-c3cc4cccnc4n3CC3CC3)n(CC3CC(C(N)=O)C3)c12 (stereo partly drawn) [Example 475, 3-({5-[(7R)-7-amino-2-azabicyclo[2.2.1]heptane-2-carbonyl]-2-[1-(cyclopropylmethyl)-1H-pyrrolo[2,3-b]pyridin-2-yl]-7-methoxy-1H-1,3-benzodiazol-1-yl}methyl)cyclobutane-1-carboxamide] | 6.74
COc1cc(C(=O)N2CC3CCC2[C@@H]3N)cc2nc(-c3cc4ccccc4n3CC3CC3)n(CC3CC3)c12 (stereo partly drawn) [Example 476, (7R)-2-[1-(cyclopropylmethyl)-2-[1-(cyclopropylmethyl)-1H-indol-2-yl]-7-methoxy-1H-1,3-benzodiazole-5-carbonyl]-2-azabicyclo[2.2.1]heptan-7-amine] | 7.00
COc1cc(C(=O)N2C[C@H](N)C[C@@H](F)C2)cc2nc(-c3cc4ccccc4n3CC3CC3)n(CC3CC(F)(F)C3)c12 [Example 477, (3R,5R)-1-{2-[1-(cyclopropylmethyl)-1H-indol-2-yl]-1-[(3,3-difluorocyclobutyl)methyl]-7-methoxy-1H-1,3-benzodiazole-5-carbonyl}-5-fluoropiperidin-3-amine] | 6.85
COc1cc(C(=O)N2CC3CCC2[C@@H]3N)cc2nc(-c3cc4ccccc4n3CC3CC3)n(CC3CC(F)(F)C3)c12 (stereo partly drawn) [Example 478, (7R)-2-{2-[1-(cyclopropylmethyl)-1H-indol-2-yl]-1-[(3,3-difluorocyclobutyl)methyl]-7-methoxy-1H-1,3-benzodiazole-5-carbonyl}-2-azabicyclo[2.2.1]heptan-7-amine] | 7.32
COc1cc(C(=O)N2CC3CCC2[C@@H]3N)cc2nc(-c3cc4ccccc4n3CC3CC3)n(CC3CC3c3ccccc3)c12 (stereo partly drawn) [Example 479, (7R)-2-{2-[1-(cyclopropylmethyl)-1H-indol-2-yl]-7-methoxy-1-[(2-phenylcyclopropyl)methyl]-1H-1,3-benzodiazole-5-carbonyl}-2-azabicyclo[2.2.1]heptan-7-amine] | 6.67
COc1cc(C(=O)N2C[C@H](N)C[C@@H](F)C2)cc2nc(-c3cc4ccccc4n3CC3CC3)n(CC3CC3)c12 [Example 480, (3R,5R)-1-[1-(cyclopropylmethyl)-2-[1-(cyclopropylmethyl)-1H-indol-2-yl]-7-methoxy-1H-1,3-benzodiazole-5-carbonyl]-5-fluoropiperidin-3-amine] | 6.52
CCn1cc(Cn2c(-c3cc4ccccc4n3CC3CC3)nc3cc(C(=O)N4CC5CCC4[C@@H]5N)cc(OC)c32)cn1 (stereo partly drawn) [Example 481, (7R)-2-{2-[1-(cyclopropylmethyl)-1H-indol-2-yl]-1-[(1-ethyl-1H-pyrazol-4-yl)methyl]-7-methoxy-1H-1,3-benzodiazole-5-carbonyl}-2-azabicyclo[2.2.1]heptan-7-amine] | 7.70
COc1cc(C(=O)N2CC3CCC2[C@@H]3N)cc2nc(-c3cc4ccccc4n3CC3CC3)n(Cc3cnn(C)c3C)c12 (stereo partly drawn) [Example 482, (7R)-2-{2-[1-(cyclopropylmethyl)-1H-indol-2-yl]-1-[(1,5-dimethyl-1H-pyrazol-4-yl)methyl]-7-methoxy-1H-1,3-benzodiazole-5-carbonyl}-2-azabicyclo[2.2.1]heptan-7-amine] | 7.64
Cn1cc(Cn2c(-c3cc4ccccc4n3CC3CC3)nc3cc(C(=O)N4CC5CCC4[C@@H]5N)cc(F)c32)cn1 (stereo partly drawn) [Example 483, (7R)-2-{2-[1-(cyclopropylmethyl)-1H-indol-2-yl]-7-fluoro-1-[(1-methyl-1H-pyrazol-4-yl)methyl]-1H-1,3-benzodiazole-5-carbonyl}-2-azabicyclo[2.2.1]heptan-7-amine] | 7.52
Cn1cc(Cn2c(-c3cc4ccccc4n3CC3CC3)nc3cc(C(=O)N4CC5CCC4[C@@H]5N)cc(Cl)c32)cn1 (stereo partly drawn) [Example 484, (7R)-2-{7-chloro-2-[1-(cyclopropylmethyl)-1H-indol-2-yl]-1-[(1-methyl-1H-pyrazol-4-yl)methyl]-1H-1,3-benzodiazole-5-carbonyl}-2-azabicyclo[2.2.1]heptan-7-amine] | 7.52
COc1cc(C(=O)N2CC3CCC2[C@@H]3N)cc2nc(-c3cc4cccnc4n3CC3CC3)n(Cc3cn[nH]n3)c12 (stereo partly drawn) [Example 485, (7R)-2-{2-[1-(cyclopropylmethyl)-1H-pyrrolo[2,3-b]pyridin-2-yl]-7-methoxy-1-[(2H-1,2,3-triazol-4-yl)methyl]-1H-1,3-benzodiazole-5-carbonyl}-2-azabicyclo[2.2.1]heptan-7-amine] | 7.33
COc1cc(C(=O)N2CC3CCC2[C@@H]3N)cc2nc(-c3cc4cccnc4n3CC3CC3)n(Cc3cnn(C)c3C)c12 (stereo partly drawn) [Example 486, (7R)-2-{2-[1-(cyclopropylmethyl)-1H-pyrrolo[2,3-b]pyridin-2-yl]-l-[(1,5-dimethyl-1H-pyrazol-4-yl)methyl]-7-methoxy-1H-1,3-benzodiazole-5-carbonyl}-2-azabicyclo[2.2.1]heptan-7-amine] | 7.35
CCn1cc(Cn2c(-c3cc4ccccc4n3CC3CC3)nc3cc(C(=O)N4C[C@H](N)C[C@@H](F)C4)cc(OC)c32)cn1 [Example 487, (3R,5R)-1-{2-[1-(cyclopropylmethyl)-1H-indol-2-yl]-1-[(1-ethyl-1H-pyrazol-4-yl)methyl]-7-methoxy-1H-1,3-benzodiazole-5-carbonyl}-5-fluoropiperidin-3-amine] | 7.34
COc1cc(C(=O)N2CC3CCC2[C@@H]3N)cc2nc(-c3cc4cccnc4n3CC3CC3)n(Cc3cn[nH]c3)c12 (stereo partly drawn) [Example 488, (7R)-2-{2-[1-(cyclopropylmethyl)-1H-pyrrolo[2,3-b]pyridin-2-yl]-7-methoxy-1-[(1H-pyrazol-4-yl)methyl]-1H-1,3-benzodiazole-5-carbonyl}-2-azabicyclo[2.2.1]heptan-7-amine] | 7.26
CCn1cc(Cn2c(-c3cc4cccnc4n3CC3CC3)nc3cc(C(=O)N4CC5CCC4[C@@H]5N)cc(OC)c32)cn1 (stereo partly drawn) [Example 489, (7R)-2-{2-[1-(cyclopropylmethyl)-1H-pyrrolo[2,3-b]pyridin-2-yl]-1-[(1-ethyl-1H-pyrazol-4-yl)methyl]-7-methoxy-1H-1,3-benzodiazole-5-carbonyl}-2-azabicyclo[2.2.1]heptan-7-amine] | 7.26
COc1cc(C(=O)N2CC3CCC2[C@@H]3N)cc2nc(-c3cc4ccccc4n3CC3CC3)n(Cc3cn[nH]n3)c12 (stereo partly drawn) [Example 490, (7R)-2-{2-[1-(cyclopropylmethyl)-1H-indol-2-yl]-7-methoxy-1-[(2H-1,2,3-triazol-4-yl)methyl]-1H-1,3-benzodiazole-5-carbonyl}-2-azabicyclo[2.2.1]heptan-7-amine] | 7.24
